Assay results reported in patent publication US9447377B2, “Endodermal cells from pluripotent cells” (priority 2011, dated 2016).

Experiments:
Type in all cases: cell-based, murine
[1] = system: wt ES cells; test: Differentiation of wt ES cells towards Sox17+ cells under PPP chemical inhibition, immunofluorescence analysis; details: immunofluorescence with anti-Sox17 antibody; serum-free KSR neural differentiation medium
Procedure: (§1) Wt murine or with a deletion of the gene coding for G6PD (G6pdΔ) embryonic stem (ES) cells have been differentiated following the method described in Fico et al. (Fico A et al., Stem Cells Dev 2008). Briefly, 48 h before the induction of the differentiation, the ES cells have been plated onto pre-gelatinized plates. On day 0, the cells have been dissociated, thus obtaining a single cell suspension, which have subsequently been plated onto gelatinized plates at a density of 1.500 cells/cm2. During the differentiation process, the culture medium has been changed every other day for the first 6 days, then daily. The culture medium used consists in the medium free from integrated Knockout Serum Replacement (KSR) serum, and contains knockout Dulbecco minimal essential medium, integrated with 15% KSR (Invitrogen), 2 mM glutamine, 100 U/ml penicillin/streptomycin, and 0.1 mM β-mercaptoethanol.
From 6 days of differentiation, the expression profiles of markers of undifferentiated cells and specific markers for the three germ layers have been analyzed by RT-PCR. The expression of Oct4 and Nanog, markers of undifferentiated ES cells, is detectable in both cell lines (FIG. 1A). […]

[2] = system: wt ES cells; test: Differentiation of wt ES cells in the presence of D-(−)-ribose; details: 10 neural differentiation days
Procedure: as §1, with “[…]Δ)” for “(G6pdΔ)”, “β-mercaptoethanol. Heterozygous knock-out ES Pdg+/- cells for the phosphogluconate dehydrogenase (PDG) enzyme, the second enzyme present in the PPP, were exposed to the above-described differentiation procedure. These cells have reduced Pdg mRNA levels, and are not sensitive to oxidative stress. […] Furthermore, […]Δ cells were exposed to the same differentiation procedure, but in the presence of D-(-)-ribose. […]” for “β-mercaptoethanol.”

[3] = system: G6pdΔ cells; test: Quantitative (real-time) PCR of Sox17 mRNA in G6pdΔ cells differentiated in the presence of D-(−)-ribose; details: normalized to GAPDH, 10 neural differentiation days in the presence of D-(−)-ribose
Procedure: as §1, with “FIG. 2: (A) RT-PCR analysis of the expression of different specific differentiation markers in wt and Pgd+/- cells on neural differentiation days 8 and 10. (B) QRT-PCR analysis of Sox17 expression in wt ES e […]Δ cells after 10 neural differentiation days in the presence of D-(-)-ribose. Wt” for “Wt”, “[…]Δ)” for “(G6pdΔ)”, “β-mercaptoethanol. Heterozygous knock-out ES Pdg+/- cells for the phosphogluconate dehydrogenase (PDG) enzyme, the second enzyme present in the PPP, were exposed to the above-described differentiation procedure. […]” for “β-mercaptoethanol.”

[4] = system: G6pdΔ cells; test: Differentiation of G6pdΔ cells towards pancreatic precursors, Real Time PCR of Pdx1 expression; details: G6pdΔ cells on differentiation day 8, 4 day exposure
Procedure: as §1
The real-time PCR analysis was carried out with a Biorad CFX 96 Real time System apparatus using a SYBR Green PCR Master Mix (Biorad) and the protocol recommended by the manufacturer. The relative expression of the various genes was normalized by using GAPDH as the gene standard. The used oligos were:
G6pdΔ cells on differentiation day 8, that are already expressing Sox17, are exposed to Indolactam V, an inducer of the differentiation of endoderm precursors towards pancreatic precursors. […]

C[C@]12CC[C@H](O)CC1=CC[C@@H]1[C@@H]2CC[C@]2(C)C(=O)CC[C@@H]12 [DHEA, dehydroepiandrosterone]
induction of differentiation of wt ES cells towards Sox 17+ cells [1]: capable of inducing the differentiation of wt ES cells towards Sox 17+ cells

O=C[C@H](O)[C@H](O)[C@H](O)CO [D-(−)-ribose]
variation in the differentiation of wt ES cells [2]: does not lead to any variation in the differentiation of wt ES cells | Sox17 mRNA levels in G6pdΔ cells [3]: a reduction in Sox17 mRNA levels

CC(C)[C@H]1C(=O)N[C@H](CO)Cc2c[nH]c3cccc(c23)N1C [Indolactam V]
increase in the Pdx1 expression levels compared to control cells [4]: about 2.5 times

NC(=O)c1ccc(N)nc1 [AN, 6-aminonicotinamide]
induction of differentiation of wt ES cells towards Sox 17+ cells [1]: capable of inducing the differentiation of wt ES cells towards Sox 17+ cells
